# Like-named read-outs stand apart in the source and are kept apart here.
# Columns and labels:
# [1] = In vivo toxicological study in rats: plasma chemistry; set-up: species or system rats of the Wistar strain; conditions: plasma
# Procedure: Forty-two male and forty-two female rats of the Wistar strain were allocated to the study. Three groups of three males and three females were given doses of 30, 100 and 300 mg/kg of target compounds (Table 8). The vehicle was 1.5 w/w % HPMC, 1.5 w/w % PS80 in 10 mM PBS, pH 7 and dose volume were 5 mL/kg. The animals were acclimatised at least 14 day prior to the study and exposed to a 12 hours light, 12 hours dark light cycle. The formulations were administered via oral gavage. Administration occurred once daily in the morning for seven consecutive days. Blood for scheduled haematology and plasma chemistry were taken at necropsy. For plasma chemistry, 0.6 ml blood (lithium heparin) per animal and for haematology, 0.5 ml blood (K2EDTA) per animal. The blood and plasma were analysed using Exigo analyzer and Vetscan equipment. Blood samples were kept in room temperature […] after collection and mixing. The blood samples were analysed as whole blood within 60 min of collection. The VetScan analyser was calibrated with calibration samples of known plasma levels of each parameter before start of analysis, occasionally during the analysis period of study samples and after completed analyses (Table 10).
# JNK1/2/3 = experiment: Western blot, JNK1/2/3 P54 and p46 isoforms; type: cell-based, human; conditions: 10 μM, 2 days
# Procedure: HepG2 cells were seeded into a 6-well plate at 400,000 cells per well. After treatment with 10 μM of JNK-IN-5A and its derivatives for two days, lysates were harvested with CelLytic M (C2978, Sigma-Aldrich). […] SDS PAGE were performed using Mini-PROTEAN® TGX™ Precast Gels (Bio-Rad) and transferred using Trans-Blot® Turbo™ Transfer System (Bio-Rad). […] ImageQuantTMLAS 500 (29-0050-63, GE) was used to detect protein bands.
# HepG2 cells = experiment: Triglyceride (TAG) measurement assay, one week steatosis model; type: cell-based, human; conditions: Homo sapiens
# Summary of the method: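 HepG2 cells steatosis-induced for one week in high-glucose DMEM/10% FBS with 10 μg/ml insulin and 10 μM T0901317, media changed at days 0, 3 and 5, with 10 μM test compound throughout. Triglyceride measured colorimetrically (OD 570 nm); viability by MTT.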
# [2] = Sex/Group F/11, 30-300 mg/kg of SET171
# [3] = Sex/Group F/12, 30-300 mg/kg of SET171
# [4] = Sex/Group F/13, 30-300 mg/kg of SET171
# [5] = Sex/Group M/11, 30-300 mg/kg of SET171
# [6] = Sex/Group M/12, 30-300 mg/kg of SET171
# [7] = Sex/Group M/13, 30-300 mg/kg of SET171
# [8] = 168 h, HepG2, 10 μM, one week steatosis induce media, Control 100.00, read-out: TAG (%)
# [9] = Sex/Group F/8, 30-300 mg/kg of SET159
# [10] = Sex/Group F/9, 30-300 mg/kg of SET159
# [11] = Sex/Group F/10, 30-300 mg/kg of SET159
# [12] = Sex/Group M/8, 30-300 mg/kg of SET159
# [13] = Sex/Group M/9, 30-300 mg/kg of SET159
# [14] = Sex/Group M/10, 30-300 mg/kg of SET159
smiles,measurement,setting,value
N#Cc1c(NC(=O)c2cccc3ccccc23)sc2c1CCN(CC(=O)Nc1cccc(Br)c1)C2 [PKL-B171],ALB,[1]; [2],61 g/L
same,ALP,[1]; [2],114 U/L
same,ALT,[1]; [2],21 U/L
same,AMY,[1]; [2],527 U/L
same,BUN,[1]; [2],6.0 mmol/L
same,CA,[1]; [2],2.90 mmol/L
same,CRE,[1]; [2],45 µmol/L
same,GLOB,[1]; [2],8 g/L
same,GLU,[1]; [2],7.8 mmol/L
same,K+,[1]; [2],4.4 mmol/L
same,NA+,[1]; [2],138 mmol/L
same,PHOS,[1]; [2],2.33 mmol/L
same,TBIL,[1]; [2],5.3 µmol/L
same,TP,[1]; [2],70 g/L
same,ALB,[1]; [3],57 g/L
same,ALP,[1]; [3],126 U/L
same,ALT,[1]; [3],21 U/L
same,AMY,[1]; [3],570 U/L
same,BUN,[1]; [3],6.5 mmol/L
same,CA,[1]; [3],2.92 mmol/L
same,CRE,[1]; [3],38 µmol/L
same,GLOB,[1]; [3],9 g/L
same,GLU,[1]; [3],7.7 mmol/L
same,K+,[1]; [3],4.5 mmol/L
same,NA+,[1]; [3],137 mmol/L
same,PHOS,[1]; [3],2.42 mmol/L
same,TBIL,[1]; [3],5.0 µmol/L
same,TP,[1]; [3],66 g/L
same,ALB,[1]; [4],56 g/L
same,ALP,[1]; [4],145 U/L
same,ALT,[1]; [4],21 U/L
same,AMY,[1]; [4],550 U/L
same,BUN,[1]; [4],6.3 mmol/L
same,CA,[1]; [4],2.89 mmol/L
same,CRE,[1]; [4],39 µmol/L
same,GLOB,[1]; [4],11 g/L
same,GLU,[1]; [4],7.9 mmol/L
same,K+,[1]; [4],4.5 mmol/L
same,NA+,[1]; [4],139 mmol/L
same,PHOS,[1]; [4],2.64 mmol/L
same,TBIL,[1]; [4],4.0 µmol/L
same,TP,[1]; [4],67 g/L
same,ALB,[1]; [5],51 g/L
same,ALP,[1]; [5],260 U/L
same,ALT,[1]; [5],26 U/L
same,AMY,[1]; [5],810 U/L
same,BUN,[1]; [5],5.3 mmol/L
same,CA,[1]; [5],2.97 mmol/L
same,CRE,[1]; [5],47 µmol/L
same,GLOB,[1]; [5],12 g/L
same,GLU,[1]; [5],7.8 mmol/L
same,K+,[1]; [5],4.3 mmol/L
same,NA+,[1]; [5],140 mmol/L
same,PHOS,[1]; [5],2.83 mmol/L
same,TBIL,[1]; [5],4.3 µmol/L
same,TP,[1]; [5],62 g/L
same,ALB,[1]; [6],52 g/L
same,ALP,[1]; [6],248 U/L
same,ALT,[1]; [6],35 U/L
same,AMY,[1]; [6],846 U/L
same,BUN,[1]; [6],6.2 mmol/L
same,CA,[1]; [6],3.04 mmol/L
same,CRE,[1]; [6],35 µmol/L
same,GLOB,[1]; [6],12 g/L
same,GLU,[1]; [6],7.7 mmol/L
same,K+,[1]; [6],4.6 mmol/L
same,NA+,[1]; [6],140 mmol/L
same,PHOS,[1]; [6],3.04 mmol/L
same,TBIL,[1]; [6],4.3 µmol/L
same,TP,[1]; [6],64 g/L
same,ALB,[1]; [7],50 g/L
same,ALP,[1]; [7],263 U/L
same,ALT,[1]; [7],25 U/L
same,AMY,[1]; [7],808 U/L
same,BUN,[1]; [7],6.4 mmol/L
same,CA,[1]; [7],2.96 mmol/L
same,CRE,[1]; [7],29 µmol/L
same,GLOB,[1]; [7],13 g/L
same,GLU,[1]; [7],8.4 mmol/L
same,K+,[1]; [7],4.4 mmol/L
same,NA+,[1]; [7],141 mmol/L
same,PHOS,[1]; [7],2.94 mmol/L
same,TBIL,[1]; [7],5.0 µmol/L
same,TP,[1]; [7],63 g/L
same,JNK1/2/3 p46 expression,JNK1/2/3,0.87 times
same,activity at 10 µM,HepG2 cells; [8],21.1%
same,activity at 10 µM,"HepG2 cells; HepG2, 168 h, ratio between TAG content and cell viability, Control 100.0, read-out: TAG/cell viability",95.7%
N#Cc1c(NC(=O)c2cccc3ccccc23)sc2c1CCN(C(=O)Nc1ccccc1OC(F)(F)F)C2 [PKL-A159],ALB,[1]; [9],56 g/L
same,ALP,[1]; [9],179 U/L
same,ALT,[1]; [9],22 U/L
same,AMY,[1]; [9],541 U/L
same,BUN,[1]; [9],6.2 mmol/L
same,CA,[1]; [9],2.76 mmol/L
same,CRE,[1]; [9],39 µmol/L
same,GLOB,[1]; [9],9 g/L
same,GLU,[1]; [9],7.8 mmol/L
same,K+,[1]; [9],4.9 mmol/L
same,NA+,[1]; [9],139 mmol/L
same,PHOS,[1]; [9],2.59 mmol/L
same,TBIL,[1]; [9],4.0 µmol/L
same,TP,[1]; [9],65 g/L
same,ALB,[1]; [10],57 g/L
same,ALP,[1]; [10],135 U/L
same,ALT,[1]; [10],21 U/L
same,AMY,[1]; [10],542 U/L
same,BUN,[1]; [10],5.1 mmol/L
same,CA,[1]; [10],2.88 mmol/L
same,CRE,[1]; [10],46 µmol/L
same,GLOB,[1]; [10],8 g/L
same,GLU,[1]; [10],7.0 mmol/L
same,K+,[1]; [10],4.4 mmol/L
same,NA+,[1]; [10],139 mmol/L
same,PHOS,[1]; [10],2.65 mmol/L
same,TBIL,[1]; [10],4.3 µmol/L
same,TP,[1]; [10],65 g/L
same,ALB,[1]; [11],53 g/L
same,ALP,[1]; [11],175 U/L
same,ALT,[1]; [11],23 U/L
same,AMY,[1]; [11],481 U/L
same,BUN,[1]; [11],4.8 mmol/L
same,CA,[1]; [11],2.89 mmol/L
same,CRE,[1]; [11],40 µmol/L
same,GLOB,[1]; [11],9 g/L
same,GLU,[1]; [11],7.8 mmol/L
same,K+,[1]; [11],4.7 mmol/L
same,NA+,[1]; [11],139 mmol/L
same,PHOS,[1]; [11],2.80 mmol/L
same,TBIL,[1]; [11],4.0 µmol/L
same,TP,[1]; [11],62 g/L
same,ALB,[1]; [12],49 g/L
same,ALP,[1]; [12],274 U/L
same,ALT,[1]; [12],25 U/L
same,AMY,[1]; [12],719 U/L
same,BUN,[1]; [12],5.9 mmol/L
same,CA,[1]; [12],2.94 mmol/L
same,CRE,[1]; [12],29 µmol/L
same,GLOB,[1]; [12],11 g/L
same,GLU,[1]; [12],8.0 mmol/L
same,K+,[1]; [12],5.0 mmol/L
same,NA+,[1]; [12],141 mmol/L
same,PHOS,[1]; [12],2.44 mmol/L
same,TBIL,[1]; [12],4.0 µmol/L
same,TP,[1]; [12],60 g/L
same,ALB,[1]; [13],47 g/L
same,ALP,[1]; [13],324 U/L
same,ALT,[1]; [13],30 U/L
same,AMY,[1]; [13],823 U/L
same,BUN,[1]; [13],6.8 mmol/L
same,CA,[1]; [13],2.99 mmol/L
same,CRE,[1]; [13],36 µmol/L
same,GLOB,[1]; [13],16 g/L
same,GLU,[1]; [13],8.8 mmol/L
same,K+,[1]; [13],5.0 mmol/L
same,NA+,[1]; [13],141 mmol/L
same,PHOS,[1]; [13],2.43 mmol/L
same,TBIL,[1]; [13],4.3 µmol/L
same,TP,[1]; [13],63 g/L
same,ALB,[1]; [14],50 g/L
same,ALP,[1]; [14],284 U/L
same,ALT,[1]; [14],24 U/L
same,AMY,[1]; [14],806 U/L
same,BUN,[1]; [14],6.1 mmol/L
same,CA,[1]; [14],3.02 mmol/L
same,CRE,[1]; [14],47 µmol/L
same,GLOB,[1]; [14],13 g/L
same,GLU,[1]; [14],7.9 mmol/L
same,K+,[1]; [14],4.8 mmol/L
same,NA+,[1]; [14],142 mmol/L
same,PHOS,[1]; [14],2.42 mmol/L
same,TBIL,[1]; [14],4.3 µmol/L
same,TP,[1]; [14],62 g/L
same,JNK1/2/3 p46 expression,JNK1/2/3,not significantly altered
same,activity at 10 µM,HepG2 cells; [8],4.54%
